Test results from PubChem BioAssay AID1632 (University of Pittsburgh Molecular Library Screening Center, 2009).
Results filed as inconclusive are left out.

Molecular target: hexokinase 1 [Trypanosoma brucei]
Test: T. brucei hexokinase 1 inhibitor potency, dose response, biochemical, IC50 (AID 1632)
Details: recombinant TbHK1 enzyme assay, absorbance read-out; for inhibition: at 100 µM, stronger effect = higher value

O=C(Cn1sc2ccccc2c1=O)NC12CC3CC(CC(C3)C1)C2
inhibition: 74.6%

O=C(O)CCCCC1CCSS1 (centres undefined)
inhibition: 96.4%

C/C(=C/CCC(C)[C@H]1CC[C@@]2(C)C3=C(CC[C@]12C)[C@@]1(C)CCC(=O)C(C)(C)[C@@H]1CC3)C(=O)O (some centres undefined)
inhibition: 55.3%

O=c1c2ccccc2sn1-c1ccccc1
inhibition: 22.3%

O=[N+]([O-])c1cc(/C=N\Nc2nccs2)ccc1O
IC50: 2690 nM
inhibition: 33.3%

CCCCc1ccc(/C=C2/C(=O)ON=C2c2ccccc2)s1
inhibition: 32.1%

CCCCCCCCCCCNC(=O)c1ccoc1C
inhibition: 73.4%

Cc1ccc(CNC(=O)CCS(=O)(=O)c2ccc(Br)cc2)cc1
inhibition: 82.3%

COC(=O)c1ccccc1NC(=O)CCS(=O)(=O)c1ccc(Br)cc1
inhibition: 71.7%

Cc1ccccc1-n1sc2cc(F)ccc2c1=O
inhibition: 87.8%

COc1ccc(C(=O)Nc2cc(Cl)ccc2C(=O)O)cc1
inhibition: 75.7%

CCOC(=O)Cc1csc(-n2sc3ccccc3c2=O)n1
inhibition: 46.9%

COc1cc(/C=C(\C#N)c2nc3c(s2)CCCC3)ccc1O
inhibition: 42.4%
